Assay [1] addresses Cyclin-dependent kinase 2 (Homo sapiens) (UniProt P24941). As to conditions: Compound concentration 100.0 nM.
For assay [2], the target named is Calcium/calmodulin-dependent protein kinase kinase 2 (Homo sapiens) (UniProt Q96RR4). As to conditions: Compound concentration 100.0 nM.
For assay [3], the target named is Beta-3 adrenergic receptor (Homo sapiens) (UniProt P13945). As to conditions: Compound concentration 10.0 uM.
For assay [4], the target named is cGMP-dependent protein kinase 1 (Homo sapiens) (UniProt Q13976). As to conditions: Compound concentration 100.0 nM.
In assay [5] the target is Serine/threonine-protein kinase STK11 (Homo sapiens) (UniProt Q15831). As to conditions: Compound concentration 100.0 nM.
Assay [6] has as its target Homeodomain-interacting protein kinase 4 (Homo sapiens) (UniProt Q8NE63). As to conditions: Compound concentration 100.0 nM.
The target of assay [7] is Tyrosine-protein kinase receptor UFO (Homo sapiens) (UniProt P30530). As to conditions: Compound concentration 100.0 nM.
In assay [8] the target is Ribosomal protein S6 kinase alpha-6 (Homo sapiens) (UniProt Q9UK32). The following applies: Compound concentration 100.0 nM.
Assay [9] addresses Serine/threonine-protein kinase MARK1 (Homo sapiens) (UniProt Q9P0L2). The following applies: Compound concentration 100.0 nM.
Assay [10] deals with Tyrosine-protein kinase SYK (Homo sapiens) (UniProt P43405). As to conditions: Compound concentration 100.0 nM.
Assay [11] has as its target Serine/threonine-protein kinase 36 (Homo sapiens) (UniProt Q9NRP7). The following applies: Compound concentration 100.0 nM.
Assay [12] addresses Fibroblast growth factor receptor 2 (Homo sapiens) (UniProt P21802). The following applies: Compound concentration 100.0 nM.
Assay [13] concerns the target Serine/threonine-protein kinase Nek4 (Homo sapiens) (UniProt P51957). As to conditions: Compound concentration 100.0 nM.
For assay [14], the target named is Mitogen-activated protein kinase kinase kinase kinase 1 (Homo sapiens) (UniProt Q92918). As to conditions: Compound concentration 100.0 nM.
Assay [15] deals with T1, Ephrin type-B receptor 4 (Homo sapiens) (UniProt P54760).
T1 sequence (whole entry): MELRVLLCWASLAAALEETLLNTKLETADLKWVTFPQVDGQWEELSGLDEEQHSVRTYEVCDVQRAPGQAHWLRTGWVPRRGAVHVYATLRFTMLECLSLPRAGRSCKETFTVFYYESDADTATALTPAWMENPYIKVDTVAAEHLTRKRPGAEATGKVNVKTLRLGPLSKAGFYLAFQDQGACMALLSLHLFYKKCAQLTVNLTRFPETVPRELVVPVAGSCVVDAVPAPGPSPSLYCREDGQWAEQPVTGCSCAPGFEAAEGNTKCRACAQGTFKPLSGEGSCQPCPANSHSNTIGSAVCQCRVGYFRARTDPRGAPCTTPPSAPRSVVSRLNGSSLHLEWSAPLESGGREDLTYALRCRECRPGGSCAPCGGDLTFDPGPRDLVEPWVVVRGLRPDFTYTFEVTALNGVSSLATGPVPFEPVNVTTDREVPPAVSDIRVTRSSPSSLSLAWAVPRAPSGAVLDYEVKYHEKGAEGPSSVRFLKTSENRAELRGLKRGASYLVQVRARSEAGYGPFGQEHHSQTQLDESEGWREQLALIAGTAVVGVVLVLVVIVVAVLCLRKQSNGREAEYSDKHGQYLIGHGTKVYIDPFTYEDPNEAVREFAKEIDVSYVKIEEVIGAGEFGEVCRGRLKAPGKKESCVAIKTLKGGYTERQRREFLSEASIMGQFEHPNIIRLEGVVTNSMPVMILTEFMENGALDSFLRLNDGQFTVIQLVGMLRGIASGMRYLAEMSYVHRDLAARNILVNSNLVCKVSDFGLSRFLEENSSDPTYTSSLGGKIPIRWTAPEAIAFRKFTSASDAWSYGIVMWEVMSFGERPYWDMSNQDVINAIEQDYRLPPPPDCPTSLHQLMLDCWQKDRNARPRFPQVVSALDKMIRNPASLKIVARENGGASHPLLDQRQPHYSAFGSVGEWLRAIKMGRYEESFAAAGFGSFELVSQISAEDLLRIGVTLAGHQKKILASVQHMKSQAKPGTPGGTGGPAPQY
The following applies: Compound concentration 100.0 nM.

In assay [16] the target is Testis-specific serine/threonine-protein kinase 3 (Homo sapiens) (UniProt Q96PN8). As to conditions: Compound concentration 100.0 nM.
For assay [17], the system named is Mast/stem cell growth factor receptor Kit (Homo sapiens), P10721 [V559D]. As to conditions: Compound concentration 100.0 nM.
The target of assay [18] is T2, Serine/threonine-protein kinase Chk1 (Homo sapiens) (UniProt O14757).
T2 sequence (whole entry): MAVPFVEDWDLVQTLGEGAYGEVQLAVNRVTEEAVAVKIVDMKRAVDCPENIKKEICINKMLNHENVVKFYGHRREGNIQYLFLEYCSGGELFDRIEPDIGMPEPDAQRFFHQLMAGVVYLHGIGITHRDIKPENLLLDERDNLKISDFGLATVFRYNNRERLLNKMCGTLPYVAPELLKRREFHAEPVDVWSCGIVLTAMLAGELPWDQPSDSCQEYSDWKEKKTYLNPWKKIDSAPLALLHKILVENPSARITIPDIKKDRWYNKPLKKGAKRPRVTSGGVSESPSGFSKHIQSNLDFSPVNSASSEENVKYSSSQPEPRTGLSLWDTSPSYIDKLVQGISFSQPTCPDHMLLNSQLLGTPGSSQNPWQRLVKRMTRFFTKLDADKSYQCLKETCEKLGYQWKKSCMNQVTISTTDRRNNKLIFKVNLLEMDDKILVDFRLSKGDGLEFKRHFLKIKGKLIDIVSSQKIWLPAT
As to conditions: Compound concentration 100.0 nM.

For assay [19], the target named is T3, Dual specificity mitogen-activated protein kinase kinase 6 (Homo sapiens) (UniProt P52564).
T3 sequence (whole entry): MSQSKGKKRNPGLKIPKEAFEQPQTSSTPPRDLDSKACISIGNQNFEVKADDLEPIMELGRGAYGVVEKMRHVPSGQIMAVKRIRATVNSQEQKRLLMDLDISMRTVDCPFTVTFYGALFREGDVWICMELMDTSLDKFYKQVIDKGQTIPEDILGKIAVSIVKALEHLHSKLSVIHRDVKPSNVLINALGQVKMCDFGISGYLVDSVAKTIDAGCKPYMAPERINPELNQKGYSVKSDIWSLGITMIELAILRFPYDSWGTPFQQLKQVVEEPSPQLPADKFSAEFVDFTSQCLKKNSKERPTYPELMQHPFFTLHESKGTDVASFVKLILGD
The following applies: Compound concentration 100.0 nM.

Assay [20] concerns Mast/stem cell growth factor receptor Kit (Homo sapiens), P10721 [D816V]. The following applies: Compound concentration 100.0 nM.
For assay [21], the target named is Protein-tyrosine kinase 2-beta (Homo sapiens) (UniProt Q14289). The following applies: Compound concentration 100.0 nM.

Each structure is given as a SMILES string.

Tyrosine-protein kinase receptor UFO (Homo sapiens), sequence (P30530 whole entry): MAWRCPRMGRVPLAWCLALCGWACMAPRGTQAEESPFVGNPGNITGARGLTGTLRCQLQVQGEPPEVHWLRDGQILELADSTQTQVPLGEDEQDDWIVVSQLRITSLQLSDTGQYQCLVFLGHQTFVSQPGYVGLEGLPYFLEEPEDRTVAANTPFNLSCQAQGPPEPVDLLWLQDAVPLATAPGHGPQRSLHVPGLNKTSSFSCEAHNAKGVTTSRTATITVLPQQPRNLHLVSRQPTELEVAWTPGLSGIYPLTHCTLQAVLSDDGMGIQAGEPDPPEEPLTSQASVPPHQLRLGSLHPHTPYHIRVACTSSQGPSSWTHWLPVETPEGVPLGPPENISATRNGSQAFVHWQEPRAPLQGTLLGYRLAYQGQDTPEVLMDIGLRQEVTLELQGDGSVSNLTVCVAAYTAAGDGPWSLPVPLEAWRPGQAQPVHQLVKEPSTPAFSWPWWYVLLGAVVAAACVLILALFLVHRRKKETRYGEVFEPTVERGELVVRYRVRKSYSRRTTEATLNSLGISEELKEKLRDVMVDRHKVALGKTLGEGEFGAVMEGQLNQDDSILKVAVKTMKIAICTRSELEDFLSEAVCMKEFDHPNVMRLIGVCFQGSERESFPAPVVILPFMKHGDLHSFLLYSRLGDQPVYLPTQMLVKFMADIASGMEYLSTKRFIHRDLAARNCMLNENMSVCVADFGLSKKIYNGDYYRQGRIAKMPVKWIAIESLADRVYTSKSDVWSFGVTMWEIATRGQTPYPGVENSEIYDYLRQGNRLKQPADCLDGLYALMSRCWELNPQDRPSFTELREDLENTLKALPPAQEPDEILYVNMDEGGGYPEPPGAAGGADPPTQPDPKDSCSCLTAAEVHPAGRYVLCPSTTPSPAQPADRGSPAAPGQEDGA
Serine/threonine-protein kinase 36 (Homo sapiens), sequence (Q9NRP7 whole entry): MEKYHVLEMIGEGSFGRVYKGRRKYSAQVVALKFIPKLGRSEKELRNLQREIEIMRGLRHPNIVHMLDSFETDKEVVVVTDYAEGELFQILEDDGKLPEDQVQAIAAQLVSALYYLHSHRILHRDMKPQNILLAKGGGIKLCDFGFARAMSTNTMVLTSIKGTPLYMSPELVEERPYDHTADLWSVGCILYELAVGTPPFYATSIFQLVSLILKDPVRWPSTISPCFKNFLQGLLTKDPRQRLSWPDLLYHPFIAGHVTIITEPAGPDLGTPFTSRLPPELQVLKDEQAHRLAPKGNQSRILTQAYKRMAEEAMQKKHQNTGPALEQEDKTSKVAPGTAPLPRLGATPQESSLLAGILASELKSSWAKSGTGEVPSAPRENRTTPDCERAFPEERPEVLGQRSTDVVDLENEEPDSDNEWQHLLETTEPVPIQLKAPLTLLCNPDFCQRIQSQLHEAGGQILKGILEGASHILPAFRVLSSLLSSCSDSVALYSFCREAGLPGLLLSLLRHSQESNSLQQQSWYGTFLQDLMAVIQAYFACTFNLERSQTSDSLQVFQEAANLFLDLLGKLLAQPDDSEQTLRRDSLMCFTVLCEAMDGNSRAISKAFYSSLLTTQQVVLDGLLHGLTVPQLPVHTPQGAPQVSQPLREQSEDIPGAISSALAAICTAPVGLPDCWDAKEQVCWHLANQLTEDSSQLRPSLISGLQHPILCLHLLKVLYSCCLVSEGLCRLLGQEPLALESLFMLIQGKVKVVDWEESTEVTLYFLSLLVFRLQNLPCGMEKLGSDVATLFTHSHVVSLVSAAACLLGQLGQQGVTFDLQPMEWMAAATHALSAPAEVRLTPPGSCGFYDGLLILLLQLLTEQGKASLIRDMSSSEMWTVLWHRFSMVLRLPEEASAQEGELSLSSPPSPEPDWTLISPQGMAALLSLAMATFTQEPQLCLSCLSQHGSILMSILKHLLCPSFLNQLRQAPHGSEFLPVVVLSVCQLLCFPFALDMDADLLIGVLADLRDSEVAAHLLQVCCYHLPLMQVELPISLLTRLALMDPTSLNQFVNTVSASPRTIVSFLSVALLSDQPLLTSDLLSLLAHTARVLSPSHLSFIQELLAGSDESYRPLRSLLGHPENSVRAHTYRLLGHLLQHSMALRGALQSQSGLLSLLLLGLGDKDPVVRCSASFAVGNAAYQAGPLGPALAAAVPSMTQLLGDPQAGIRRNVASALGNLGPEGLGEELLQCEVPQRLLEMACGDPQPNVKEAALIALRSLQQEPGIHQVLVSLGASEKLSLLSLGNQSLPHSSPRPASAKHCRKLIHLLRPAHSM
Testis-specific serine/threonine-protein kinase 3 (Homo sapiens), sequence (Q96PN8 whole entry): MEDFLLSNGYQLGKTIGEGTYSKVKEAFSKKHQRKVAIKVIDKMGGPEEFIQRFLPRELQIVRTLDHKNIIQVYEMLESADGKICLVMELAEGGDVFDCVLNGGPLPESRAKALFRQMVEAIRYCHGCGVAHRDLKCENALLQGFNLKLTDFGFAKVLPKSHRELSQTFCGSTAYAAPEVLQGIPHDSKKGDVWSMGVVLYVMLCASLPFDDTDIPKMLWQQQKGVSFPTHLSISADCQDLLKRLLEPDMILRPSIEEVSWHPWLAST
Mast/stem cell growth factor receptor Kit (Homo sapiens), P10721 [D816V], sequence (P10721 whole entry D816V): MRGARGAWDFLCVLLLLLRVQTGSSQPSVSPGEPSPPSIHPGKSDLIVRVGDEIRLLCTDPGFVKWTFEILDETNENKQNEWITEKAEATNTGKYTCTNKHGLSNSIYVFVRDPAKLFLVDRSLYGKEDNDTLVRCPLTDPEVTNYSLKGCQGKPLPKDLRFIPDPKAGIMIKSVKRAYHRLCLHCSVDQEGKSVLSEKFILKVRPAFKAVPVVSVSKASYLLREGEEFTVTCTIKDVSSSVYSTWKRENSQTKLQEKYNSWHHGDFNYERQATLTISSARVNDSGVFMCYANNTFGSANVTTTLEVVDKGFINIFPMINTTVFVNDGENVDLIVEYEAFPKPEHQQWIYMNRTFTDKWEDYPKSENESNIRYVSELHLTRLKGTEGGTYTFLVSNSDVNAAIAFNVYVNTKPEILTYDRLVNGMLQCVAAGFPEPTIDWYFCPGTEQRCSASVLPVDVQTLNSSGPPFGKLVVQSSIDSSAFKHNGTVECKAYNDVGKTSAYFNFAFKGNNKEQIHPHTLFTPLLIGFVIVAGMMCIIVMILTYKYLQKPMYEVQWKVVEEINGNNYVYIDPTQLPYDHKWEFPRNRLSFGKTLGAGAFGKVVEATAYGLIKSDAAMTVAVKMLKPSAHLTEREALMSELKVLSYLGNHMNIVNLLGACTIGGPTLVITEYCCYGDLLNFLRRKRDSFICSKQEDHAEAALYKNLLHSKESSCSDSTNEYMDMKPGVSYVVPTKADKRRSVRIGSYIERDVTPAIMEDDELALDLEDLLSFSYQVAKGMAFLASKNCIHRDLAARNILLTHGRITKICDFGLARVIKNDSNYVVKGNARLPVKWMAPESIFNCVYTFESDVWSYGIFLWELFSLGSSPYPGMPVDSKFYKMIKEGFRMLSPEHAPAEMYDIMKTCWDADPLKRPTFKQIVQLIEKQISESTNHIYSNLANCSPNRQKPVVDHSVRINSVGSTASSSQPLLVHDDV
Serine/threonine-protein kinase MARK1 (Homo sapiens), sequence (Q9P0L2 whole entry, looked up): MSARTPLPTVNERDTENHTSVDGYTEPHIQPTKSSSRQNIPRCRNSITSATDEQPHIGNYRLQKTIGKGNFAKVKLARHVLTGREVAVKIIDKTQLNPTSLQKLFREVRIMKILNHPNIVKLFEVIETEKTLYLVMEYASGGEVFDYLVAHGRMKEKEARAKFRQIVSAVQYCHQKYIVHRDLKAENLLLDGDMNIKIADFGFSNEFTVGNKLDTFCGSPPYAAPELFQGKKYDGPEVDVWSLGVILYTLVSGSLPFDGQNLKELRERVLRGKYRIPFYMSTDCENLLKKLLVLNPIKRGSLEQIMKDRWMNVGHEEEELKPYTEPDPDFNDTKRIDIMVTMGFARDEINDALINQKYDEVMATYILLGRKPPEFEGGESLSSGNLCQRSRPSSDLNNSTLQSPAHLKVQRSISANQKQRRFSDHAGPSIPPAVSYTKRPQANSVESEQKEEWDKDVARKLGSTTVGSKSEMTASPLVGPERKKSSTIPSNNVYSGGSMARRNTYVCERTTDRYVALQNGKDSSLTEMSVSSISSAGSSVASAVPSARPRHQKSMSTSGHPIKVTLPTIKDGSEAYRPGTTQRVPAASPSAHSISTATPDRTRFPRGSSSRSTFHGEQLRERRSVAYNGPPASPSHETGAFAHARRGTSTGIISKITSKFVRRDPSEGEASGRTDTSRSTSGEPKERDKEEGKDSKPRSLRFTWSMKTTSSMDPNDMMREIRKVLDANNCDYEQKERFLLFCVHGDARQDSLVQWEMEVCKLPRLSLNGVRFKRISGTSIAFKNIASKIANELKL
Serine/threonine-protein kinase Nek4 (Homo sapiens), sequence (P51957 whole entry, looked up): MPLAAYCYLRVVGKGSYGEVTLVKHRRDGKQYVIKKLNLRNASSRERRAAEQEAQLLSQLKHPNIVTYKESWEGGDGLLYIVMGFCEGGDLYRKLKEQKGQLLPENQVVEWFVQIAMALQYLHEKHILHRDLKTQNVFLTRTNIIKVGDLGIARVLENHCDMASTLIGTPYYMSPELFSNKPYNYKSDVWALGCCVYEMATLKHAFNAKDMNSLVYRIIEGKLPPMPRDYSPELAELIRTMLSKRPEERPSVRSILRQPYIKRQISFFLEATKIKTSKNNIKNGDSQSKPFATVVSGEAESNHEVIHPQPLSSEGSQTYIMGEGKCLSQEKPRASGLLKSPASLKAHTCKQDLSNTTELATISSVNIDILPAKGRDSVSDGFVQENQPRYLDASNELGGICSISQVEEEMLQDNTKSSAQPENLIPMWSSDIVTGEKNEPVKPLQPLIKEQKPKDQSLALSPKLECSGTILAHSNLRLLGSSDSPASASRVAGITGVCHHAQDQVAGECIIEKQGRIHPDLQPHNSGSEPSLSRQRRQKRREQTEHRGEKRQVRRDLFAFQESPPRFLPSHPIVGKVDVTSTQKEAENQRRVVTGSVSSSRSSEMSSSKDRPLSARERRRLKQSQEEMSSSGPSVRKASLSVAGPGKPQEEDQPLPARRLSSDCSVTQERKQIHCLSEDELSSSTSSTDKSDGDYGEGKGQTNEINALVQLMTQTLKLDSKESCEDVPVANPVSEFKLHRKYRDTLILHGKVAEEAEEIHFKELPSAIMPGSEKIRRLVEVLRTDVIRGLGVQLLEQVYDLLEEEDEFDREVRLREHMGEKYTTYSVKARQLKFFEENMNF

Consider `Cn1cc(Cl)c2c(Oc3c(F)cc(Nc4cc(Cl)nc(N)n4)cc3F)ccnc21` [BAY-4900], for which the residual activity is 100% in assay [1]; 99% in assay [2]; 83% in [4]; 100% in [5]; 100% in assay [6]; 100% in assay [7]. For the same compound, the residual activity was 100% in assay [8]; 100% in assay [9]; 100% in assay [10]; 93% in assay [11]; 98% in assay [12]; 84% in assay [13]. For the same compound, the residual activity was 82% in [14]; 100% in assay [15]; 100% in [16]; 96% in assay [17]; 100% in [18]; 100% in assay [19]. Besides, the residual activity in [20] is 97%; in [21] it was 100%. In addition, in assay [3], the inhibition is 3.48%.
Turning to `Cc1c[nH]c2nccc(Oc3c(F)cc(Nc4cc(Cl)nc(N)n4)cc3F)c12` [BAY-549], the residual activity in [1] is 99%; in assay [2], 98%; in assay [4] it was 49%; in assay [5], 100%; in [6], 100%; in assay [7] it was 93%. Besides, the residual activity in assay [8] was 99%; in assay [9], 82%; in assay [10], 100%; in [11] it was 85%; in assay [12], 100%; in [13], 90%. Besides, the residual activity in [14] is 73%; in assay [15], 100%; in assay [16] it was 100%; in assay [17], 90%; in assay [18], 100%; in assay [19], 99%. For the same compound, the residual activity in assay [20] is 100%; in assay [21], 90%. Moreover, in [3], the inhibition was 22%.

(Values after ChEMBL document CHEMBL4507274 (2021).)
